Laboratory results taken from patent publication US11919887B2, “Substituted tetrahydrofurans as modulators of sodium channels” (Vertex Pharmaceuticals Incorporated, priority 2019, dated 2024).

target: human Nav 1.8 (Homo sapiens, UniProt Q9Y5Y9); test: E-VIPR assay detecting and measuring Nav inhibition (HEK cells expressing truncated human Nav 1.8); format: cell-based; details: in the Absence of Human Serum in the E-VIPR Assay; read-out: IC50
Source text: Sodium ion channels are voltage-dependent proteins that can be activated by inducing membrane voltage changes by applying electric fields. The electrical stimulation instrument and methods of use, referred to as E-VIPR, are described in International Publication No. WO 2002/008748 A3 and C.-J. Huang et al. Characterization of voltage-gated sodium channel blockers by electrical stimulation and fluorescence detection of membrane potential, 24 Nature Biotech. 439-46 (2006), both of which are incorporated by reference in their entirety. The instrument comprises a microtiter plate handler, an optical system for exciting the coumarin dye while simultaneously recording the coumarin and oxonol emissions, a waveform generator, a current- or voltage-controlled amplifier, and parallel electrode pairs that are inserted into assay plate wells. Under integrated computer control, this instrument passes user-programmed electrical stimulus protocols to cells within the wells of the microtiter plate.
16-20 hours prior to running the assay on E-VIPR, HEK cells expressing a truncated form of human Nav 1.8 with full channel activity were seeded into microtiter 384-well plates, pre-coated with matrigel, at a density of 25,000 cells per well. 2.5-5% KIR2.1 Bacmam virus was added to the final cell suspension before seeding into cell plates. HEK cells were grown in Dulbecco's Modified Eagle's Medium (DMEM) supplemented with 10% FBS (Fetal Bovine Serum, qualified; Sigma #F4135), 1% NEAA (Non-Essential Amino Acids, Gibco #11140), 1% HEPES (Gibco #15630), 1% Pen-Strep (Penicillin-Streptomycin; Gibco #15140) and 5 μg/ml Blasticidin (Gibco #R210-01). Cells were expanded in vented cap cell culture flasks, with 90-95% humidity and 5% CO2.
Human Serum (HS, Millipore #S1P1-01KL, or Sigma SLBR5469V and SLBR5470V as a 50%/50% mixture, for 25% assay final concentration)
Bath1 Buffer: • Sodium Chloride 160 mM (9.35 g/L), Potassium Chloride, 4.5 mM (0.335 g/L), Glucose 10 mM (1.8 g/L), Magnesium Chloride (Anhydrous) 1 mM (0.095 g/L), Calcium Chloride 2 mM (0.222 g/L), HEPES 10 mM (2.38 g/L) in water.
Na/TMA Cl Bath1 Buffer: • Sodium Chloride 96 mM (5.61 g/L), Potassium Chloride 4.5 mM (0.335 g/L), Tetramethylammonium (TMA)-Cl 64 mM (7.01 g/L), Glucose 10 mM (1.8 g/L), Magnesium Chloride (Anhydrous) 1 mM (0.095 g/L), Calcium Chloride 2 mM (0.222 g/L) HEPES 10 mM (2.38 g/L) in water.
Hexyl Dye Solution (2× concentration): • Bath1 Buffer containing 0.5% β-cyclodextrin (made fresh prior to each use, Sigma #C4767), 8 μM CC2-DMPE and 2 μM DiSBAC6(3). The solution was made by adding 10% Pluronic F127 stock equal to combined volumes of CC2-DMPE and DiSBAC6(3). The order of preparation was first mix Pluronic and CC2-DMPE, then add DiSBAC6(3), then while vortexing add Bath1/β-Cyclodextrin.
Compound Loading Buffer (2×concentration): Na/TMA Cl Bath1 Buffer containing HS (omitted in experiments run in the absence of human serum (HS)) 50%, VABSC-1 1 mM, BSA 0.2 mg/ml (in Bath-1), KCl 9 mM, DMSO 0.75%.
Assay Protocol (7 Key Steps): • 1) To reach the final concentration in each well, 400 nL of each compound was pre-spotted (in neat DMSO) into polypropylene compound plates at 250×desired final concentration from an intermediate stock concentration of 0.075 mM, in an 11 point dose response, 3-fold dilution, resulting in a top dose of 300 nM final concentration in the cell plate. Vehicle control (neat DMSO), and positive control (an established Nav1.8 inhibitor, 25 μM final in assay in DMSO) were added manually to the outermost columns of each plate respectively. The compound plate was backfilled with 45 μL per well of Compound Loading Buffer resulting in a 250 fold dilution of compound following a 1:1 transfer of compound into the cell plate (see Step 6). Final DMSO concentration for all wells in the assay was 0.625% (0.75% DMSO was supplemented to the Compound Loading Buffer for a final DMSO concentration of 0.625%). […]

Sequence of human Nav 1.8 (Q9Y5Y9 whole entry, looked up, the tested form may be a part): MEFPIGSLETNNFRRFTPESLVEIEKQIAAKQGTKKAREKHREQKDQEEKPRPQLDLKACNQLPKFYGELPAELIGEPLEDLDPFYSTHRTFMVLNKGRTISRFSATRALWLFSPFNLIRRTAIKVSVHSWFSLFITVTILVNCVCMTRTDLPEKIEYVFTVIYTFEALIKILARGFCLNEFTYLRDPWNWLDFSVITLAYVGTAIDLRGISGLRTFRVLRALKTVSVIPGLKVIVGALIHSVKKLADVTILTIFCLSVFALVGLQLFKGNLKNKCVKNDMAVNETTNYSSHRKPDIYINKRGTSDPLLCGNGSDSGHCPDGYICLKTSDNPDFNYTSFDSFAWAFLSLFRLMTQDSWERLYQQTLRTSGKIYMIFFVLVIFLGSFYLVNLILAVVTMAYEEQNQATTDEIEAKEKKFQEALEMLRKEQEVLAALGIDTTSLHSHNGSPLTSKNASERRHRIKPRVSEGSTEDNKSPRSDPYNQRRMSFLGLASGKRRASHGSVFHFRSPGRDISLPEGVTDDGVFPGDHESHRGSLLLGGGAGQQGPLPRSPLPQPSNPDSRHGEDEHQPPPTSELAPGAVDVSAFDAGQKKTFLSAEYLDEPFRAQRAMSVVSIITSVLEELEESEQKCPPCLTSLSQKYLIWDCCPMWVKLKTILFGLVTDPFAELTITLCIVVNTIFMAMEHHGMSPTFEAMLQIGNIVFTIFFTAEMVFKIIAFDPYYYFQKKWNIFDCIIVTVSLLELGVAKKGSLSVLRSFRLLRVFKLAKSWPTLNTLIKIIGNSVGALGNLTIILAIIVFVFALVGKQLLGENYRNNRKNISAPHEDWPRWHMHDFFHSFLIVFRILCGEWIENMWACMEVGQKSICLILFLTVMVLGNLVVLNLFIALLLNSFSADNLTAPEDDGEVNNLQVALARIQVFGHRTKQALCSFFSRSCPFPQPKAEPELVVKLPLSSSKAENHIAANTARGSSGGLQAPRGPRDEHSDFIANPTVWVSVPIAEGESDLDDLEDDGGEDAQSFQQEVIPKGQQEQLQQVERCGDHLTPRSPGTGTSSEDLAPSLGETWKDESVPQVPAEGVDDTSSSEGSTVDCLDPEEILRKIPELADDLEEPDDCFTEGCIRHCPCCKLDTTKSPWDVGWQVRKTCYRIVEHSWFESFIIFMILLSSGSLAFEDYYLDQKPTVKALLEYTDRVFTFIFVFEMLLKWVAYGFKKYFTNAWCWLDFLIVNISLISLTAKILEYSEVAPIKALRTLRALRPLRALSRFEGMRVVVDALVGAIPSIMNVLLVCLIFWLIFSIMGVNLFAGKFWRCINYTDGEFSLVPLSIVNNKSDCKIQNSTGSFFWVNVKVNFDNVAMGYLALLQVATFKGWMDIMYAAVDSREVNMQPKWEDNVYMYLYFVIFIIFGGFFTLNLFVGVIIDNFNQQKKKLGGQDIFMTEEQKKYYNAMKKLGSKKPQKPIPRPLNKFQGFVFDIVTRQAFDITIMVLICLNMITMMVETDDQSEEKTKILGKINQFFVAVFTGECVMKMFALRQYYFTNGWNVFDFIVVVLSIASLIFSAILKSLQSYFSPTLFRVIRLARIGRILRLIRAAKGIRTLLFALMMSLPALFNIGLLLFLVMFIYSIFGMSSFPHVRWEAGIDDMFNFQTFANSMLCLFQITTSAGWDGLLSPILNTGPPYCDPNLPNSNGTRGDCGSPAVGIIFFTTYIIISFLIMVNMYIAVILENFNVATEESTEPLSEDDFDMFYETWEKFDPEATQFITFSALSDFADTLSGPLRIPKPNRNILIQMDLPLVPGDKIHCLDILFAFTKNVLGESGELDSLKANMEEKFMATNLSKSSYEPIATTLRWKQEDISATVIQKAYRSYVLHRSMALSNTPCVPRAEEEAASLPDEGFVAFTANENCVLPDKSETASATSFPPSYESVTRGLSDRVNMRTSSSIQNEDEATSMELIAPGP

Structure (SMILES)	IC50
COc1c([C@H]2[C@H](C(=O)Nc3ccnc(C(N)=O)c3)O[C@@](C)(C(F)(F)F)[C@H]2C)cccc1C(F)(F)F (single isomer, unassigned) [compound 42]	< 0.01 µM
COc1c([C@@H]2[C@@H](C(=O)Nc3ccnc(C(N)=O)c3)O[C@](C)(C(F)(F)F)[C@@H]2C)cccc1C(F)(F)F (single isomer, unassigned) [compound 43]	0.1 to 1 µM
COc1nc(C(F)F)ccc1[C@@H]1[C@@H](C(=O)Nc2ccnc(C(N)=O)c2)O[C@](C)(C(F)(F)F)[C@@H]1C (stereo in doubt) [Compound 141, rel-(2S,3R,4R,5S)-4-[[3-[6-(difluoromethyl)-2-methoxy-3-pyridyl]-4,5-dimethyl-5-(trifluoromethyl)tetrahydrofuran-2-carbonyl]amino]pyridine-2-carboxamide]	> 1 µM
COc1c([C@H]2[C@H](C(=O)Nc3cc(F)nc(C(N)=O)c3)O[C@@](C)(C(F)(F)F)[C@H]2C)ccc(F)c1F [Compound 127, 4-[[(2R,3S,4S,5R)-3-(3,4-difluoro-2-methoxy-phenyl)-4,5-dimcthyl-5-(trifluoromethyl)tetrahydrofuran-2-carbonyl]amino]-6-fluoro-pyridine-2-carboxamide]	< 0.01 µM
COc1c([C@H]2[C@H](C(=O)Nc3cncc(C(N)=O)c3)O[C@@](C)(C(F)(F)F)[C@H]2C)ccc(F)c1F [Compound 118, 5-[[(2R,3S,4S,5R)-3-(3,4-difluoro-2-methoxy-phenyl)-4,5-dimethyl-5-(trifluoromethyl)tetrahydrofuran-2-carbonyl]amino]pyridine-3-carboxamide]	< 0.01 µM

same assay, conditions: in the Presence of Human Serum in the E-VIPR Assay; read-out: IC50

Structure (SMILES)	IC50
COc1c([C@H]2C[C@@](C)(C(F)(F)F)O[C@@H]2C(=O)Nc2ccnc(C(N)=O)c2)ccc(F)c1Cl (relative stereo) [Compound 22, rel-(2R,3S,5R)-4-[[3-(3-chloro-4-fluoro-2-methoxy-phenyl)-5-methyl-5-(trifluoromethyl)tetrahydrofuran-2-carbonyl]amino]pyridine-2-carboxamide]	0.01 to 0.1 µM
COc1cc(F)ccc1[C@H]1[C@H](C(=O)Nc2ccnc(C(N)=O)c2)O[C@@](C)(C(F)(F)F)[C@H]1C (single isomer, unassigned) [Compound 3a]	> 1 µM
COc1c([C@@H]2[C@H](C)[C@H](C)O[C@H]2C(=O)Nc2ccnc(C(N)=O)c2)ccc(F)c1F (stereo in doubt) [Compound 108, rel-(2R,3S,4S,5S)-4-[[3-(3,4-difluoro-2-methoxy-phenyl)-4,5-dimethyl-tetrahydrofuran-2-carbonyl]amino]pyridine-2-carboxamide]	0.1 to 1 µM
C[C@H]1[C@@H](c2ccc(F)c(F)c2O)[C@H](C(=O)Nc2cc[n+]([O-])c(C(N)=O)c2)O[C@@]1(C)C(F)(F)F [Compound 57, 4-[[(2R,3S,4S,5R)-3-(3,4-difluoro-2-hydroxy-phenyl)-4,5-dimethyl-5-(trifluoromethyl)tetrahydrofuran-2-carbonyl]amino]-1-oxido-pyridin-1-ium-2-carboxamide]	> 1 µM
COc1nc(C(F)(F)F)ccc1[C@@H]1[C@@H](C(=O)Nc2ccnc(C(N)=O)c2)O[C@](C)(C(F)(F)F)[C@@H]1C (stereo in doubt) [Compound 137, rel-(2S,3R,4R,5S)-4-[[3-[2-methoxy-6-(trifluoromethyl)-3-pyridyl]-4,5-dimethyl-5-(trifluoromethyl)tetrahydrofuran-2-carbonyl]amino]pyridine-2-carboxamide]	> 1 µM
CCOc1c([C@@H]2[C@@H](C(=O)Nc3ccnc(C(N)=O)c3)O[C@](C)(C(F)(F)F)[C@@H]2C)ccc(F)c1F [Compound 8, (2S,3R,4R,5S)-4-[[3-(2-ethoxy-3,4-difluoro-phenyl)-4,5-dimethyl-5-(trifluoromethyl)tetrahydrofuran-2-carbonyl]amino]pyridine-2-carboxamide]	> 1 µM
Cc1cnc(C(N)=O)cc1NC(=O)[C@@H]1O[C@@](C)(C(F)(F)F)[C@@H](C)[C@H]1c1ccc(F)c(F)c1OC(F)F (stereo in doubt) [Compound 150, rel-(2R,3S,4S,5R)-4-[[3-[2-(difluoromethoxy)-3,4-difluoro-phenyl]-4,5-dimethyl-5-(trifluoromethyl)tetrahydrofuran-2-carbonyl]amino]-5-methyl-pyridine-2-carboxamide]	> 1 µM
COc1c([C@H]2C[C@@H](C(C)(C)C)O[C@@H]2C(=O)Nc2ccnc(C(N)=O)c2)ccc(F)c1F (single isomer, unassigned) [Compound 65]	> 1 µM
COc1c([C@@H]2[C@H](C)[C@H](C(C)C)O[C@H]2C(=O)Nc2ccnc(C(N)=O)c2)ccc(F)c1F [Compound 113, 4-[[(2R,3S,4S,5S)-3-(3,4-difluoro-2-methoxy-phenyl)-5-isopropyl-4-methyl-tetrahydrofuran-2-carbonyl]amino]pyridine-2-carboxamide]	0.01 to 0.1 µM
C[C@@H]1[C@H](c2ccc(F)cc2OC(F)F)[C@@H](C(=O)Nc2ccnc(C(N)=O)c2)O[C@]1(C)C(F)(F)F (stereo in doubt) [Compound 1, rel-(2S,3R,4R,5S)-4-[[3-[2-(difluoromethoxy)-4-fluoro-phenyl]-4,5-dimethyl-5-(trifluoromethyl)tetrahydrofuran-2-carbonyl]amino]pyridine-2-carboxamide]	0.01 to 0.1 µM
C[C@@H]1[C@H](c2ccc(F)cc2OC(F)F)[C@@H](C(=O)Nc2ccnc(C(N)=O)c2)O[C@@]1(C)C(F)(F)F (racemic) [compound 28]	0.01 to 0.1 µM
COc1c([C@@H]2[C@@H](C(=O)Nc3ccnc(C(N)=O)c3)OC(C)(C)[C@H]2C)ccc(F)c1F (single isomer, unassigned) [Compound 104]	> 1 µM
COc1c([C@H]2C[C@](C)(C(F)(F)F)O[C@@H]2C(=O)Nc2ccnc(C(N)=O)c2)ccc(F)c1Cl [Compound 21, (2S,3R,5R)-4-[[3-(3-chloro-4-fluoro-2-methoxy-phenyl)-5-methyl-5-(trifluoromethyl)tetrahydrofuran-2-carbonyl]amino]pyridine-2-carboxamide]	> 1 µM
COc1cc(F)ccc1[C@@H]1[C@@H](C)[C@@](C)(C(F)(F)F)O[C@H]1C(=O)Nc1ccnc(C(N)=O)c1 (single isomer, unassigned) [Compound 36]	> 1 µM
COc1c([C@H]2[C@@H](C(=O)Nc3ccnc(C(N)=O)c3)OC(C)(C)[C@@H]2C)ccc(F)c1F (racemic) [Compound 100, rac-(2S,3S,4R)-4-[[3-(3,4-difluoro-2-methoxy-phenyl)-4,5,5-trimethyl-tetrahydrofuran-2-carbonyl]amino]pyridine-2-carboxamide]	> 1 µM
C[C@@H]1[C@H](c2ccc(F)c(F)c2)[C@@H](C(=O)Nc2ccnc(C(N)=O)c2)O[C@]1(C)C(F)(F)F (single isomer, unassigned) [Compound 90]	> 1 µM
COc1c([C@H]2C[C@@H](C(F)(F)F)O[C@@H]2C(=O)Nc2ccnc(C(N)=O)c2)ccc(F)c1C (single isomer, unassigned) [Compound 111]	> 1 µM
COc1c([C@H]2C[C@@](C)(C(F)(F)F)O[C@@H]2C(=O)Nc2ccnc(C(N)=O)c2)ccc(F)c1F (stereo in doubt) [Compound 4, rel-(2S,3R,5S)-4-[[3-(3,4-difluoro-2-methoxy-phenyl)-5-methyl-5-(trifluoromethyl)tetrahydrofuran-2-carbonyl]amino]pyridine-2-carboxamide]	> 1 µM
